According to patent US10011602B2, “Immunological reagents and uses therefor” (THE UNIVERSITY OF MELBOURNE, priority 2012, dated 2018):

Assays:
[1] = system: Jurkat.LC13 line; assay: Activation of control Jurkat.LC13 line in the presence of C1R.HLA-B8 cells; type: cell-based, human
Excerpt: Next, to formally establish whether 7-hydroxy-6-methyl-8-ribityl lumazine and/or its precursor, 6,7-dimethyl-8-ribityl lumazine, could activate MAIT cells, both compounds were chemically synthesized their ability to enable MR1 refolding and to activate Jurkat.MAIT cells and human MAIT cells from peripheral blood tested. […] Thus, direct precursors of riboflavin biosynthesis activate MAIT cells.

[2] = system: human MAIT cells from peripheral blood; assay: Activation of primary MAIT cells from PBMCs (CD69, IFN-γ, TNF-α); type: cell-based; conditions: PBMCs with C1R cells expressing MR1
Description: PBMCs from a healthy donor were mixed with C1R-huMR1 cells (10^5 each/well). Salmonella SL1344 supernatant (2 μl) from cultures grown in LB supplemented with 25 μg/ml streptomycin (Sigma) for 4 hr at 37° C., or compounds (35A, 36A, 48G: 25 μg/ml final, A-6FP: 10 μM final) or PMA (2 ng/ml+ionomycin (1 ng/ml) added in a total volume of 220 μl RF-10, and incubated overnight at 37° C. Cells were stained with anti-CD3-PE-Cy7 (eBioscience, 20 μg/ml), anti-CD4-APC-Cy7 (Biolegend, 1.7 μg/ml), anti-CD161-APC (Miltenyi Biotec, 1:50), FITC-conjugated D5 (anti-MAIT TCR, 10 μg/ml) and either anti-CD69-PE (BD Biosciences 1:50), anti-IFNγ-PE (BD Pharmingen 10 μg/ml) or anti-TNFα-PE (BD Pharmingen 10 μg/ml), and analyzed by flow cytometry using a Canto II cytometer and Diva software. For intracellular cytokine staining, brefeldin A (10 μg/ml) was added to the assay after the first 1 hr and the incubation allowed to proceed overnight. Cells were fixed with 1% parformaldehyde after staining for surface markers and permeabilised with 1% saponin during cytokine stains. MAIT cells were defined as CD3^+, CD4^−, CD161^+, D5^+ after gating on PBMCs using FSC and SSC.
PBMCs from a healthy donor were mixed with C1R cells expressing MR1 (10^5 each/well). Salmonella SL1344 supernatant (2 μl) from cultures grown in LB supplemented with 25 μg/ml streptomycin (Sigma) for 4 hr at 37° C., or compounds (RL-6,7-diMe, RL-6-Me-7-OH, 6FP: 76.2 μM final, rRL-6-HM: 0.152 μM final) or PMA (2 ng/ml+ionomycin (1 ng/ml) added in a total volume of 220 μl RF-10, and incubated overnight at 37° C. Cells were stained with anti-CD3-PE-Cy7 (eBioscience, 20 μg/ml), anti-CD4-APC-Cy7 (Biolegend, 1.7 μg/ml), anti-CD161-APC (Miltenyi Biotec, 1:50), FITC-conjugated D5 (anti-MAIT TCR, 10 μg/ml) and either anti-CD69-PE (BD Biosciences 1:50), anti-IFNγ-PE (BD Pharmingen 10 μg/ml) or anti-TNFα-PE (BD Pharmingen 10 μg/ml), and analyzed by flow cytometry using a Canto II cytometer and Diva software. […] CD69 expression was analysed by flow cytometry. […]

[3] = system: Jurkat.MAIT cells; assay: Activation of Jurkat.MAIT cells (CD69) with C1R antigen presenting cells expressing MR1; type: cell-based, human
Description: Jurkat cells transduced with a MAIT TCR comprising the TRAV1-2+TRAJ33 invariant α chain, and a TRBV6-1 β chain were tested for activation by addition of Salmonella supernatant to C1R antigen presenting cells expressing MR1 for 16 hours. Jurkat.MAIT cells were subsequently stained with PE-conjugated anti-CD3, and APC-conjugated anti-CD69 antibodies before analysis by flow cytometry. Activation of Jurkat.MAIT cells was measured by an increase in surface CD69 expression. Compounds to be tested for the ability to activate Jurkat.MAIT cells were tested alongside Salmonella supernatant.
A biological assay for the activation of MAIT T cell receptor (TCR)-expressing T cell lines (into which genes encoding the MAIT TCR alpha and beta chains had been introduced), by antigen presenting cells (expressing MR1 on the cell surface) infected with the bacterium Salmonella typhimurium has been established. This assay measures the increase in expression of the cell surface activation marker, CD69, upon activation of MAIT T cells.

[4] = Stability of synthesised MR1 Ags; type: physicochemical
Excerpt: Compounds 6,7-dimethyl-8-D-ribityllumazine (1), 7-hydroxy-6-methyl-8-D-ribityllumazine (2) and a 2 electron reduced form (3) of 6-hydroxymethyl-8-D-ribityllumazine were synthesised by modifications (FIG. 64) to reported literature procedures (for review see Plaut et al 1974). Their purities were established using proton NMR spectra and reversed phase HPLC traces. In brief, D-ribitylamine (6) was produced in 55% yield from D-(−)-ribose via its oxime intermediate. Condensation with 4-chlorouracil (7) followed by nitrosation provided the key intermediate (9) in reasonable yield (27%). The diaminouracil (10) was unstable, and therefore it was generated in situ, immediately before use, by reduction of the nitroso group with sodium hydrosulfite. Condensation with the corresponding α,β-dicarbonyl reagents at the optimal pH under a nitrogen atmosphere in the dark gave the products 1 and 2 after purification by preparative HPLC. […] For dimethyl analogue 1, three equivalents of 2,3-butadione gave a much purer crude product than reported in the literature, in which 6.6 equivalents gave a significant amount of bis-adduct and made purification difficult. […] Thus prolonged reaction and work-up procedures were best avoided. In contrast, a large excess of sodium pyruvate (9-18 eq) was key for efficient production of the 7-hydroxy analogue. […]

Stability [4]: unstable, particularly in solution
SMILES: Cc1nc2c(=O)[nH]c(=O)nc-2n(C[C@H](O)[C@H](O)[C@H](O)CO)c1C [Compound 1, 6,7-dimethyl-8-D-ribityllumazine]
Activation of control Jurkat.LC13 line [1]: failed to activate | Activation of MAIT cells (CD69 upregulation, intracellular IFN-γ and TNF-α) [2]: specifically activated | Activation of Jurkat.MAIT cells (increase in surface CD69) [3]: activated
